In the assay the target is T1, c-fms (Homo sapiens, UniProt P07333).
T1 construct: 3DP
Description: autophosphorylation, fluorescence polarization competition immunoassay for c-fms inhibition. Format: biochemical. To be noted: for inhibition at 2 µM: @ 2 μM compound (values marked *); for inhibition at 10 µM: read-out: % Inhibition (at 10 μM). The procedure:
The assay was performed in black 96-well microplates (LJL BioSystems). The assay buffer used was 100 mM HEPES, pH 7.5, 1 mM DTT, 0.01% (v/v) Tween-20. Compounds were diluted in assay buffer containing 4% DMSO just prior to the assay. […] The kinase reaction was initiated by adding 2 μL of 5 mM ATP (Sigma) in assay buffer. The final concentrations in the assay were 10 nM c-fms, 1 mM ATP, 5 mM MgCl2, 2% DMSO. Control reactions were ran in each plate: in positive and negative control wells, assay buffer (made 4% in DMSO) was substituted for the compound; in addition, positive control wells received 1.2 μL of 50 mM EDTA.
The plates were incubated at room temperature for 45 min. At the end of the incubation, the reaction was quenched with 1.2 μL of 50 mM EDTA (EDTA was not added to the positive control wells at this point; see above). Following a 5-min incubation, each well received 10 μL of a 1:1:3 mixture of anti-phosphotyrosine antibody, 10×, PTK green tracer, 10× (vortexed), FP dilution buffer, respectively (all from PanVera, cat. # P2837). The plate was covered, incubated for 30 min at room temperature and the fluorescence polarization was read on the Analyst. […] The reported IC50 values are averages of three independent measurements.
For orientation: In fluorescence polarisation assays a small probe gives low polarisation when free and higher when bound to something large.

[1] abbreviates: 10 nM c-fms, 1 mM ATP, averages of three independent measurements, read-out: IC50.
Setting [2] is: determined in a similar fashion for Examples 11-68, read-out: IC-50 (activites below 1 μM).

Structures can show the parent of a compound that is named as a salt. Where two headings read alike, the source gives them in different places.

T1 sequence (P07333 20-972): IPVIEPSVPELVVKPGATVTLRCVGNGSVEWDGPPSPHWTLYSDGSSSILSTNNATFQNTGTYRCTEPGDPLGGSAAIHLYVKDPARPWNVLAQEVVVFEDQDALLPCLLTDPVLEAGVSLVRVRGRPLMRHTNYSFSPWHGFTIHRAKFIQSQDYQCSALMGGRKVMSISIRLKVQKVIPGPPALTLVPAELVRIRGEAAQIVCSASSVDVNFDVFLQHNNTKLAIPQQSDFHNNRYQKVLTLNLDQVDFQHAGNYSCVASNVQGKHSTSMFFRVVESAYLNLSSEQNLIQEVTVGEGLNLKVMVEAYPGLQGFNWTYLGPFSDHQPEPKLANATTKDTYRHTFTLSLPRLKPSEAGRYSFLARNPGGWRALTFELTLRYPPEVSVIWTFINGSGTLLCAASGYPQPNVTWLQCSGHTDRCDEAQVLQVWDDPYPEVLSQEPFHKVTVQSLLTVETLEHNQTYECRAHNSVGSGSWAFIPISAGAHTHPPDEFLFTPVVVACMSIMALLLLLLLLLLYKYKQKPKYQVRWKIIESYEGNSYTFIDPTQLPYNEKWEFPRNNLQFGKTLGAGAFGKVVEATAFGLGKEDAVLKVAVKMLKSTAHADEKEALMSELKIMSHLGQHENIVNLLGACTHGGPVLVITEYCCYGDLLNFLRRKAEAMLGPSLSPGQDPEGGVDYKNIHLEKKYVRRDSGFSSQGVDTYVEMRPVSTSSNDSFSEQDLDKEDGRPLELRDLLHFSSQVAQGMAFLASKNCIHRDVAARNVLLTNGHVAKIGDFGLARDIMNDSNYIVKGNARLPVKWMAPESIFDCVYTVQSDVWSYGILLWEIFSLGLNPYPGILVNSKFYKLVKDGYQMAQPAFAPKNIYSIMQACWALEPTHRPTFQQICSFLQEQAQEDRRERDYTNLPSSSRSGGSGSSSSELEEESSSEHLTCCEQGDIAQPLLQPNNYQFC

As usually defined, the inhibition is the percentage by which the read-out fell short of the control. The compound `N#Cc1ccc(C(=O)Nc2ccc(Cl)cc2N2CCCCC2)o1` came in with an inhibition at 2 µM of 90%. In addition, the IC50 under setting [1] was < 1000 nM.

Take `O=C(Nc1cc(CO)ccc1N1CCCCC1)c1ccc([N+](=O)[O-])o1`: the IC50 under setting [1] is < 1000 nM. The inhibition at 10 µM (at 10 μM compound) turned out to be 100%.

Consider `CC(C)c1ccc(NC(=O)c2nc(C#N)c[nH]2)c(C2=CCCCC2)c1` [Example 22, 4-Cyano-1H-imidazole-2-carboxylic acid (2-cyclohex-1-enyl-4-isopropyl-phenyl)-amide], for which, under setting [2], the IC50 was < 1000 nM.

In the case of `N#Cc1ccc(C(=O)Nc2cc(CNCC(O)CO)ccc2N2CCCCC2)o1` (stereo not drawn), at 2 µM the inhibition was 93%. Also, under setting [1], the IC50 was < 1000 nM.

On to `C[C@H]1CN(c2ccccc2NC(=O)c2ccc([N+](=O)[O-])o2)C[C@H](C)O1`, for which the IC50 under setting [1] is > 1000 nM. Further, the inhibition at 10 µM (at 10 μM compound) worked out at 80%.

As to `CC1CCN(c2ccccc2NC(=O)c2ccc(C#N)o2)CC1`, the IC50 under setting [1] was < 1000 nM. Besides, for the setting “at 10 μM compound”, the inhibition at 10 µM turned out to be 97%.

Take `N#Cc1ccc(C(=O)Nc2ccccc2N2CCC(O)CC2)o1`: the inhibition at 2 µM was 90%. Under setting [1], the IC50 is > 1000 nM.

On to `CC(C)(N)c1ccc(NC(=O)c2nc(C#N)c[nH]2)c(C2=CCCCC2)c1` [Example 14, 4-Cyano-1H-imidazole-2-carboxylic acid [4-(1-amino-1-methyl-ethyl)-2-cyclohex-1-enyl-phenyl]-amide, acetic acid salt], for which the IC50 under setting [2] is < 1000 nM.

Consider `N#Cc1ccc(C(=O)Nc2c(F)cccc2N2CCCCC2)o1`, for which the IC50 under setting [1] is > 1000 nM. Besides, the inhibition at 10 µM (at 10 μM compound) came out at 61%.

Consider `O=C(Nc1ccccc1N1CCCCCC1)c1ccc([N+](=O)[O-])o1`, for which, under setting [1], the IC50 is < 1000 nM. Also, where the note is “at 10 μM compound”, the inhibition at 10 µM was found to be 100%.

With `O=C(Nc1ccccc1N1CCC(O)CC1)c1ccc([N+](=O)[O-])o1`, the IC50 under setting [1] is < 1000 nM. Further, the inhibition at 10 µM (at 10 μM compound) is 98%.

On to `O=C(Nc1ccccc1N1CCCCC1)c1cc([N+](=O)[O-])c[nH]1`, for which the IC50 under setting [1] was < 1000 nM. Besides, the inhibition at 10 µM (at 10 μM compound) was 99%.

Turning to `O=Cc1ccc(C(=O)Nc2ccccc2N2CCCCC2)o1`, the IC50 under setting [1] is > 1000 nM. Moreover, the inhibition at 10 µM (at 10 μM compound) was 86%.

Turning to `CC1(C)CCN(c2ncccc2NC(=O)c2nc(C#N)c[nH]2)CC1` [Example 63, 4-Cyano-1H-imidazole-2-carboxylic acid (4,4-dimethyl-3,4,5,6-tetrahydro-2H-[1,2′]bipyridinyl-3′-yl)-amide trifluoroacetic acid salt], under setting [2], the IC50 was < 1000 nM.

As to `O=C(Nc1ccccc1N1CCCCC1)c1cccc([N+](=O)[O-])c1`, the IC50 under setting [1] is > 1000 nM. In addition, where the note is “at 10 μM compound”, the inhibition at 10 µM was 77%.

As for `O=C(Nc1ccccc1N1CCC(CCO)CC1)c1ccc([N+](=O)[O-])o1`, under setting [1], the IC50 was < 1000 nM. Moreover, the inhibition at 10 µM (at 10 μM compound) worked out at 100%.

`O=C(Nc1ccccc1N1CCOCC1)c1ccc([N+](=O)[O-])o1`: under setting [1], the IC50 was > 1000 nM. Besides, the inhibition at 10 µM (at 10 μM compound) came to 89%.

The compound `CS(=O)(=O)NCc1ccc(N2CCCCC2)c(NC(=O)c2ccc(C#N)o2)c1` returned an inhibition at 2 µM of 100%. For the same compound, the IC50 under setting [1] is < 1000 nM.

`C[C@@H]1CN(c2ccccc2NC(=O)c2ccc([N+](=O)[O-])o2)C[C@H](C)O1`: under setting [1], the IC50 is > 1000 nM. For the same compound, under “at 10 μM compound”, the inhibition at 10 µM turned out to be 72%.

As for `O=C(Nc1ccccc1N1CCC(CO)CC1)c1ccc([N+](=O)[O-])o1`, the IC50 under setting [1] was < 1000 nM. In addition, for the setting “at 10 μM compound”, the inhibition at 10 µM was found to be 100%.

Consider `O=C(Nc1ccccc1N1CCCCC1)c1n[nH]cc1[N+](=O)[O-]`, for which the IC50 under setting [1] was > 1000 nM. Besides, the inhibition at 10 µM (at 10 μM compound) is 61%.

On to `COC(C)(C)c1ccc(NC(=O)c2nc(C#N)c[nH]2)c(C2=CCCCC2)c1` [Example 13, 4-Cyano-1H-imidazole-2-carboxylic acid [2-cyclohex-1-enyl-4-(1-methoxy-1-methyl-ethyl)-phenyl]-amide], for which the IC50 under setting [2] is < 1000 nM.

`N#Cc1ccc(N2CCCCC2)c(NC(=O)c2ccc(C#N)o2)c1` yielded an inhibition at 2 µM of 95%. Besides, under setting [1], the IC50 was < 1000 nM.

Consider `O=C(Nc1ccccc1N1CCCCC1)c1ccc(Br)o1`, for which, under setting [1], the IC50 is > 1000 nM. Also, under “at 10 μM compound”, the inhibition at 10 µM worked out at 68%.

`N#Cc1ccc(C(=O)Nc2ccc(F)cc2N2CCCCC2)o1` displayed an inhibition at 2 µM of 94%. Moreover, the IC50 under setting [1] was < 1000 nM.

Regarding `CC1(C)CC=C(c2ncccc2NC(=O)c2nc(C#N)c[nH]2)CC1` [Example 42, 4-Cyano-1H-imidazole-2-carboxylic acid [2-(4,4-dimethyl-cyclohex-1-enyl)-pyridin-3-yl]-amide trifluoroacetic acid salt], the IC50 under setting [2] is < 1000 nM.

On to `Cc1cccc(N2CCCCC2)c1NC(=O)c1ccc(C#N)o1`, for which the IC50 under setting [1] was > 1000 nM. Moreover, the inhibition at 10 µM (at 10 μM compound) worked out at 50%.

Compound `N#Cc1ccc(C(=O)Nc2ccccc2N2CCC(CCO)CC2)o1` came in with an inhibition at 2 µM of 97%. The IC50 under setting [1] is < 1000 nM.

With `N#Cc1ccc(C(=O)Nc2ccccc2N2CCC(CO)CC2)o1`, the inhibition at 2 µM is 93%. Further, the IC50 under setting [1] is < 1000 nM.

As for `O=C(O)c1ccc(C(=O)Nc2ccccc2N2CCCCC2)o1`, the IC50 under setting [1] was > 1000 nM. For the same compound, the inhibition at 10 µM (at 10 μM compound) is 24%.

Turning to `CCOc1ccccc1NC(=O)c1ccc([N+](=O)[O-])o1`, the IC50 under setting [1] is > 1000 nM. In addition, the inhibition at 10 µM (at 10 μM compound) amounted to 56%.

In the case of `N#Cc1ccc(C(=O)Nc2ccccc2N2CCCCC2)o1`, the IC50 under setting [1] was < 1000 nM. The inhibition at 10 µM (at 10 μM compound) is 99%.

As to `CC1CCN(c2ccccc2NC(=O)c2nc(C#N)c[nH]2)CC1` [Example 41, 4-Cyano-1H-imidazole-2-carboxylic acid [2-(4-methyl-piperidin-1-yl)-phenyl]-amide trifluoroacetic acid salt], the IC50 under setting [2] was < 1000 nM.

For `O=C(Nc1ccccc1N1CCCCC1)c1cc([N+](=O)[O-])ccn1`, the IC50 under setting [1] was > 1000 nM. Also, for the setting “at 10 μM compound”, the inhibition at 10 µM was found to be 90%.

For the compound `CC1(C)CC=C(c2ccccc2NC(=O)c2nc(C#N)c[nH]2)CC1` [Example 67, 4-Cyano-1H-imidazole-2-carboxylic acid [2-(4,4-dimethyl-cyclohex-1-enyl)-phenyl]-amide], the IC50 under setting [2] was < 1000 nM.

`O=C(Nc1ccccc1N1CCCCC1)c1cc([N+](=O)[O-])n[nH]1` gave an inhibition at 2 µM of 50%. Moreover, the IC50 under setting [1] was > 1000 nM.

For the compound `CC(C)(O)c1ccc(NC(=O)c2nc(C#N)c[nH]2)c(C2=CCCCC2)c1` [Example 12, 4-Cyano-1H-imidazole-2-carboxylic acid [2-cyclohex-1-enyl-4-(1-hydroxy-1-methyl-ethyl)-phenyl]-amide], the IC50 under setting [2] is < 1000 nM.

Take `CC1CCN(c2ccccc2NC(=O)c2ccc([N+](=O)[O-])o2)CC1`: the IC50 is < 1000 nM and the inhibition at 10 µM worked out at 92%.

For the compound `CC(=O)c1ccc(C(=O)Nc2ccccc2N2CCCCC2)s1`, the IC50 under setting [1] was > 1000 nM. Further, the inhibition at 10 µM (at 10 μM compound) was found to be 60%.

In the case of `O=C(Nc1ccccc1N1CCCCC1)c1ccc(Cl)o1`, the IC50 under setting [1] is > 1000 nM. Moreover, the inhibition at 10 µM (at 10 μM compound) was 88%.

Regarding `O=C(Nc1cc(F)ccc1N1CCCCC1)c1ccc([N+](=O)[O-])o1`, the IC50 under setting [1] is < 1000 nM.

For `CC1CCCN(c2ccccc2NC(=O)c2ccc([N+](=O)[O-])o2)C1` (stereo not drawn), the IC50 under setting [1] was < 1000 nM. The inhibition at 10 µM (at 10 μM compound) came to 96%.

For `O=C(Nc1ccccc1N1CCCCC1)c1ccc([N+](=O)[O-])o1`, where the note is “at 10 μM compound”, the inhibition at 10 µM was determined as 91%.

Turning to `COc1ccc(N2CCCCC2)c(NC(=O)c2ccc(C#N)o2)c1`, testing at 2 µM gave an inhibition of 99%. For the same compound, the IC50 under setting [1] was < 1000 nM.

Source of the values: patent US7790724B2, “c-fms kinase inhibitors” (Janssen Pharmaceutica N.V., priority 2003, dated 2010).
